3 compounds from the NIST ThermoML archive (doi:10.1021/je3012925) can be followed below.

The conditions of data set [1]: Liquid; for mass density: 293.15 K, 101.33 kPa, Vibrating tube method; for Normal boiling temperature: mercury-in-glass thermometers.
Data set [2] in a line: refractive index (Na D-line) (dimensionless). Conditions: 293.15 K; 101.33 kPa; Liquid; Standard Abbe refractometry.

± gives the expanded uncertainty stated by the source.

What is called mass density is mass per unit of volume. The term refractive index denotes the speed of light in vacuum divided by its phase velocity in the sample. Consider `CN(C)C=O` [dimethylformamide], for which, in data set [1], the mass density amounted to 942.6 ± 0.3 kg/m3 and the Normal boiling temperature amounted to 153.06 ± 0.2 °C. Moreover, the refractive index in data set [2] is reported as 1.4328 ± 0.0007.
In the same order, the values of `CCC(C)COC(C)=O` (centres undefined) [2-methylbutyl ethanoate] are 873.5 ± 0.3 kg/m3, 138.23 ± 0.2 °C and 1.4034 ± 0.0007.
The corresponding values for `CCC(C)CO` (centres undefined) [2-methyl-1-butanol] are 817.6 ± 0.2 kg/m3, 128.12 ± 0.2 °C and 1.4096 ± 0.0007.
